The values below come from patent US20240016924A1, “NEW ADJUVANT TO IMPROVE THE INNATE IMMUNITY” (INSTITUT NATIONAL DE LA SANTÉ ET DE LA RECHERCHE MÉDICALE, priority 2020, published 2024).

One test concerns autologous CD4+ T cells. In words: DC-T co-cultures, CD4+ T cell proliferation (CFSE). Format: cell-based, human. As for the experimental part:
Autologous CD4+ T cells were purified from PMBCs by negative selection according to manufacturer instructions (StemCell Technologies, France) (purity>95%)
DCs and confluent ECs were co-cultured overnight as described above, and DC-EC or eduDC was further incubated with P1 (clade B, 125 μM) or medium for 24 h. Then, DCs were separated and incubated with autologous CD4+ T cells pre-labeled with CFSE (Thermo Fisher) according to the manufacturer's instructions, at a ratio of 1:5 (DC/T). After 5 days of culture, CD4+ T cell proliferation was analyzed by flow cytometry as described (Yeh, Yeh et al. 2013, Qin, Yin et al. 2015) using Phytohaemagglutinin (PHA) (5 μg/mL) as positive control.

Another test concerns primary HNECs. As to the kind of experiment: MicroRNA microarray analysis and miR qPCR after P1 stimulation. Format: cell-based, human. As for the experimental part: Confluent HNECs in 12-well plate were stimulated with medium or P1 (clade B, 125 μM) for 6 hours, at 37° C. Total RNA was extracted using Trizol. Before analysis, lfTSLP RNA up-regulation was confirmed by qPCR as described above and RNA quality was assessed with Agilent 2100 bioanalyzer according to manufacturer instructions (Agilent Technologies). Three untreated and treated paired samples from three independent experiments were analyzed by GeneChip miRNA 4.0 arrays (Affymetrix, Thermo Fisher) containing probes for 2578 human mature microRNAs and 2025 pre-mature microRNAs (https://assets.thermofisher.com/TFS-Assets/LSG/brochures/miRNA_4-0_and_4-1_datasheet.pdf). Potential microRNA targets were analyzed with the Ingenuity Pathway Analysis (IPA) software (Qiagen).
The quantification and knockdown of microRNA were performed as previously described with some modifications (Zhou, Xu et al. 2018). Briefly, total RNA was purified using MinElute PCR Purification Kit (Qiagen), the expression level of miR-4485 was quantified with TaqMan Small RNA Assays (Thermo Fisher). Reactions were performed in triplicates, and U6 was used as endogenous control. In order to knockdown miR-4485, 70% confluent HNEC cells were transfected with anti-miR-4485 inhibitor (67 nM, Qiagen) or mock inhibitor (miSCRIPT inhibitor negative control, 67 nM, Qiagen) using Lipofectamine RNAiMAX (Invitrogen) as described by the manufacturer. 36 h after transfection, miR-4485 expression, when quantified as described above, was reduced by 50-60% in anti-miR-4485 transfected cells as compared to anti-miR control (n=3 independent experiments).

Test [1] has as its system primary human nasal epithelial cells (HNECs). In words: TSLP secretion in primary human nasal epithelial cells. Format: cell-based. As to conditions: GalCer-dependent. As for the experimental part: Primary human nasal epithelial cells (HNECs, purchased from PromoCell, Heidelberg, Germany) were isolated from nasal septum or adenoids of healthy donors. Cells from two independent donors were obtained. HNECs were cultured in airway epithelial cell basal medium (PromoCell) and supplemented with airway epithelial cell growth SupplementMix (PromoCell) and only cells from passage 2 to 6 were used.
(§1) TSLP, IL-25/IL-17E, IL-33, IFN-γ, IL-10, IL-12/23p40, IL-4, IL-5, IL-6, IL-13, TNF-α, MMP-9, IL-8/CXCL8, […], MDC/CCL22, TARC/CCL17, APRIL and BAFF were measured in culture supernatants from indicated experiments with custom multiplex Luminex assays (Bio-techne) according to the manufacturer's instructions. Additionally, when indicated TSLP was measured in culture supernatants by enzyme-linked immunosorbent assay (ELISA) with a limit of detection of 8 pg/ml (Thermo Fisher) according to the manufacturer's instructions.

The test system of another test is RPMI 2650 cells. As to the kind of experiment: TSLP secretion in nasal RPMI 2650 cell culture supernatants (ELISA). Format: cell-based, human. How it is done: Nasal RPMI 2650 cells (isolated from the human nasal septum, squamous cell carcinoma, ATCC) were grown in MEMα (Minimum Essential Medium α, Thermo Fisher) supplemented with 10% fetal calf serum (FCS, Eurobio, Courtaboeuf, France) and 1% penicillin/streptomycin.
as §1
We first investigate whether P1 induced TSLP secretion in nasal epithelium. Therefore, we cultured human nasal epithelial cells (RPMI 2650) with P1 Glade B for 2-24 hours at 37° C. and analyzed the culture supernatants for TSLP secretion.

For test [2], the system named is nasal RPMI cells. In words: Quantitative RT-PCR for short and long form TSLP, nasal RPMI cells. The format is cell-based, human. As for the experimental part:
The expression of short and long form TSLP was quantified as described (Bjerkan, Schreurs et al. 2015, Dong, Hu et al. 2016). Briefly, total RNA was extracted using Trizol. Five hundred nanograms of RNA were treated with ezDNase Enzyme (Thermo Fisher) to remove genomic DNA, and reverse transcribed into cDNA using the kit SuperScript IV VILO Master Mix according to manufacturer instructions (Thermo Fisher). Quantitative PCR was performed using reported primers (Dong, Hu et al. 2016) and the PowerUp SYBR Green Master Mix according to manufacturer instructions (Thermo Fisher). Reactions were performed in triplicates, with glyceraldehyde-3-phosphate dehydrogenase (GAPDH) as the internal control. Amplification, data acquisition, and analysis were carried out using the LightCycler 480 Software (Roche, Mannheim, Germany). The levels of TSLP mRNA were normalized to the levels of GAPDH using the ΔCt method (Schmittgen and Livak 2008) and were presented as 2-ΔCt values.

Test [3] relates to nasal RPMI cells. As to the kind of experiment: Cytokines and chemokines quantification (Luminex), nasal RPMI cells. Format: cell-based, human. Conditions: 125 μM, 24 hrs. As for the experimental part: as §1
We next investigated whether, in addition to TSLP, P1 could stimulate epithelial secretion of additional immune factors prone to attract antigen presenting cells (APCs). […] Together with TSLP (Zhou, Xu et al. 2018), this set of immune factors could facilitate recruitment of APCs to the mucosal surface for initiation of an immune response, since CCL20 and CCL2 chemo-attract macrophages and immature dendritic cells (DCs), and MMP-9 degrades the extracellular matrix and facilitates the migration of immune cells in or out the epithelium. Treg cells have IgA-inducing functions and require RA, TGF-b1, IL-10, and TSLP from intestinal epithelial cells and DCs. So, we assumed IL-10 released from either EC or DC may contribute to IgA class switching (Gutzeit, Magri, et al. 2014).

Consider “SQNQQEKNEQELLELDKWASLWNWFNITNWLWYIK [P1]”, for which the “proliferation of CD4+ T cells” value in the test on autologous CD4+ T cells (P1 stimulation on CD4+ T cells alone) is on record as “has no effect”. For the same sequence, in the test on autologous CD4+ T cells (peptide-primed eduDCs, 125 μM, 5 days, DC/T 1:5), the “proliferation of autologous CD4+ T cells” value is on record as “induced the proliferation of autologous CD4+ T cells”. In addition, the “miR-4485-3p increase, microRNA array” value in the test with primary HNECs (P1 125 μM, 6 hours) is listed as > 9 fold. The “number of differentially expressed microRNAs” value in the test on primary HNECs (P1 125 μM, 6 hours, microRNA array, p<0.05, 23 up-regulated, 16 down-regulated) is 39. Moreover, the miR-375 expression entry in the test with primary HNECs (primary HNECs, P1 stimulation) is on record as “not accompanied by a change in miR-375 expression”. Moreover, the “increase in miR-4485-3p expression, qPCR” value in the test with primary HNECs (upon P1 stimulation, n=4) was 2.6±0.8 fold. Also, the TSLP secretion entry in test [1] was “induces primary human nasal epithelial cells (HNECs) to secrete TSLP”; in the test on RPMI 2650 cells (P1 5, 25, 125 μM, 2 h to 4 h, compared with medium and scramble peptides), “upregulates TSLP secretion in a dose-dependent manner”. Also, in the test on RPMI 2650 cells (2-24 hours at 37° C.), the “TSLP secretion time course” value is recorded as “reaching a plateau from 4 to 24 h”. In the test on RPMI 2650 cells (P1 at 125 μM versus 5 μM and 25 μM), the “TSLP secretion, trimeric versus monomeric state” value was “significantly higher secretion of TSLP”. In addition, the “Secretion of TSLP” value in the test with RPMI 2650 cells (peptide at 125 uM, 4 hours, n=5) was 52.3 ± 3.4 pg/mL. In addition, the “increase of lfTSLP transcription compared to unstimulated cells” value in the test on nasal RPMI cells [2] (p=0.02, n=5) is on record as 1.9 fold. The “level of the sfTSLP transcript” value with nasal RPMI cells [2] (upon P1 stimulation) is “remains unchanged”. In addition, in the test on nasal RPMI cells [3], the “secretion of MMP-9, CCL20, CCL2 and IL-10” value was “selectively induced the secretion of MMP-9, CCL20, CCL2 and IL-10”.
